“Also recorded” adds a separate entry of the source.
Assays:
[1] = Hygroscopicity study by dynamic vapor sorption (DVS); assay type: physicochemical; details: 25° C. and 80% RH
Experimental: Dynamic Vapor Sorption (DVS) Method Used in the Present Disclosure
Instrument model: SMS DVS Advantage dynamic vapor sorption apparatus
Test condition: The sample (10 to 15 mg) was placed in a DVS sample pan for testing.
The detailed DVS parameters were as follows:
Equilibration: dm/dt=0.01%/min (The shortest time: 10 min, and the longest time: 180 min)
Drying: Dried for 120 min at 0% RH
RH (%) test gradient: 10%
Range of RH (%) test gradient: 0%-90%-0%
The classification of hygroscopicity evaluation was as follows:
SMS DVS Advantage dynamic vapor sorption apparatus

[2] = Solid stability test (high temperature, high humidity, strong light; XRPD); assay type: physicochemical
Text: For the samples placed under high temperature and high humidity conditions, the vial opening was sealed with aluminum foil paper and small holes were punched in the aluminum foil paper to ensure that the sample can fully contact the ambient air. For the samples placed under strong light condition, the vial opening was sealed with aluminum foil paper. The samples placed under various conditions were sampled and tested for XRPD on the 5th day and 10th day, and the test results were compared with the initial test results on day 0.

[3] = target: Glutathione-S-transferase-labeled FXR human protein (Homo sapiens (Human), UniProt Q96RI1); experiment: FXR biochemical assay (alphascreen); details: FXR with biotin-labeled steroid receptor coactivator, read-out: EC50 (nM) Mean ± SEM, activation effect on FXR
Experimental: 1. […] The reference compound was prepared as a 400 μM DMSO solution, and then diluted 1.5-fold to 10 concentration points. […] 2. […] 3. […] 4. […] 5. […] 6.

[4] = test system: NASH model (high-fat diet feeding and CCl4 induction); experiment: In vivo efficacy assay, high-fat diet and CCl4 induced NASH model; design: species or system mice
Experimental: The model building in this assay included two steps: high-fat diet feeding and CCl4 induction. Firstly, the mice were fed with high-fat diet to induce non-alcoholic fatty liver. The mice with a body weight of >35 g were selected and continued to be fed with high-fat diet while being administered with 25% CCl4 ([…]) by intraperitoneal injection twice a week for four weeks.
The day when the administration of CCl4 was started was set as day 0, and the time when the administration of CCl4 was started was set as hour 0. On the day when the administration of CCl4 was started, the administration was started by intragastric gavage. […] The time point of the injection of CCl4 should be 4 hours or longer apart from the time point of the first administration of the day.
The healthy control group consisted of 6 normal mice, which were fed with ordinary diet during the assay, without CCl4 injection.
48 obese mice were used in the model group and the administration group. Each group consisted of 8 mice. After grouping, the mice were injected intraperitoneally with CCl4 and administered with different doses of drugs or vehicle, respectively.
The analysis software Graphpad Prism6 was used for comparation between two groups.
For the analysis of hepatic pathology in animal models of non-alcoholic steatohepatitis, the therapeutic effect of the compound on NAFLD was comprehensively evaluated in three aspects of hepatocyte steatosis, hepatocyte ballooming degeneration, and inflammation accumulation in hepatic lobule with the reference of clinicopathological diagnosis and evaluation criteria for NAFLD, and using NAFLD activity score (NAS).
All slices stained with Sirius red were wholly scanned by a Digital pathoscope 4S slide scanner. 2 fields of view were randomly selected under a 5× field of view, and 2 fields of view covered 85% of the liver tissue area. Image pro-plus 6.0 software was then used for quantitative analysis, and fibrosis deposition area in the slice was calculated.

[5] = 15 mg/kg, intragastric gavage once a day, 28 days, Mean±SEM
[6] = 7.5 mg/kg, intragastric gavage once a day, 28 days, Mean±SEM

Glutathione-S-transferase-labeled FXR human protein, sequence (Q96RI1 whole entry): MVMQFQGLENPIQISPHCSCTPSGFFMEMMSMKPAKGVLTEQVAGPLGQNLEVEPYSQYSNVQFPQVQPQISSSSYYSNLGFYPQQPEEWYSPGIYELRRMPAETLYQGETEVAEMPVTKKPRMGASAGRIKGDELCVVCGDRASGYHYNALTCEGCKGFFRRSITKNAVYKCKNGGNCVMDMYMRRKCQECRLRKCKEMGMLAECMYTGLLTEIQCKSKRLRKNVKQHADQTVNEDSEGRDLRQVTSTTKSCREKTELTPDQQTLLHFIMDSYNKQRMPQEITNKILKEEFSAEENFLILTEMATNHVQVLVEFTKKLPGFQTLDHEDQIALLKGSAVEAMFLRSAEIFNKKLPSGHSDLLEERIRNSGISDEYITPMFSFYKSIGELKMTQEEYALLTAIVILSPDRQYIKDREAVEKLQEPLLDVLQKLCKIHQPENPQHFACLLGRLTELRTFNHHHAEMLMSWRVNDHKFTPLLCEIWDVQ

O=C(O)c1cnc(N2C(=O)CCc3cc(OCc4c(-c5c(Cl)cccc5Cl)noc4C4CC4)ccc32)c(Cl)c1
Classification of hygroscopicity [1]: slightly hygroscopic | ΔW, weight increase by moisture absorption [1]: 0.5834% | Crystal form (XRPD) ([2]; Day 0, initial): Crystal form A | Crystal form (XRPD) ([2]; High humidity (room temperature/relative humidity at 92.5%, open), Day 5): Crystal form A | Crystal form (XRPD) ([2]; High humidity (room temperature/relative humidity at 92.5%, open), Day 10): Crystal form A | Crystal form (XRPD) ([2]; High temperature (60° C., open), Day 5): Crystal form A | Crystal form (XRPD) ([2]; High temperature (60° C., open), Day 10): Crystal form A | Crystal form (XRPD) ([2]; Strong light (5000 lx, sealed), Day 5): Crystal form A | Crystal form (XRPD) ([2]; Strong light (5000 lx, sealed), Day 10): Crystal form A | Solid stability (in words) ([2]; high temperature, high humidity and strong light): good stability; also recorded: stable

O=C(O)c1ccnc(N2CC(O)(c3ccc(OCc4c(-c5c(Cl)cccc5Cl)noc4C4CC4)cc3Cl)C2)c1 [PX-104, reference compound]
EC50 [3]: 65.2 nM | Hepatocyte ballooming degeneration score [4, 5]: 0.0 | NAS score [4, 5]: 1.479 | NAS score ([4]; 15 mg/kg, intragastric gavage once a day, 28 days, Mean±SEM, listed as PX104): significantly reduce the NAS score

O=C(O)c1cnc(N2C(=O)CCc3cc(OCc4c(-c5c(Cl)cccc5Cl)noc4C4CC4)ccc32)c(Cl)c1 [compound of formula (I)]
Hepatic fibrosis (fibrosis deposition area, Sirius red) [4, 6]: 2.580 | Hepatocyte ballooming degeneration score [4, 6]: 0.0 | Hepatic steatosis score [4, 5]: 0.854 | Hepatocyte ballooming degeneration score [4, 5]: 0.0 | Hepatocyte ballooming degeneration score ([4]; 45 mg/kg, intragastric gavage once a day, 28 days, Mean±SEM, one mouse 0.17 determined as abnormal value): 0.021^@ ± | Hepatic function and hepatic damage (in words) ([4]; conclusion of the assay): significantly improve hepatic function and reduce hepatic damage

Reference: patent publication US12215098B2 (priority 2018, dated 2025)
